Experimental data taken from PMC12514245, “Impaired migration and lung invasion of human melanoma by a novel small molecule targeting the transmembrane domain of death receptor p75^NTR” (EMBO Molecular Medicine, 2025).
Where “and” joins values, the source holds several entries; their conditions need not be identical. Equal entries are not always repeated.

Tests used:
[1] = target: T1, p75^NTR I253A TMD mutant in COS cells (Rattus norvegicus, UniProt P07174, I253A); assay: Live cell homo-FRET anisotropy, I253A mutant p75NTR; format: cell-based; set-up: key to average anisotropy change, I253A: fold change vs mean of 6 pre-treatment time points (baseline ≈ 100); settings: for average anisotropy change, I253A: 10 μM
T1 construct: COS cells expressing full length, GFP-tagged rat p75^NTR; expressed in transfected cells; host or cells: COS-7
T1 sequence (P07174 30-425 I253A): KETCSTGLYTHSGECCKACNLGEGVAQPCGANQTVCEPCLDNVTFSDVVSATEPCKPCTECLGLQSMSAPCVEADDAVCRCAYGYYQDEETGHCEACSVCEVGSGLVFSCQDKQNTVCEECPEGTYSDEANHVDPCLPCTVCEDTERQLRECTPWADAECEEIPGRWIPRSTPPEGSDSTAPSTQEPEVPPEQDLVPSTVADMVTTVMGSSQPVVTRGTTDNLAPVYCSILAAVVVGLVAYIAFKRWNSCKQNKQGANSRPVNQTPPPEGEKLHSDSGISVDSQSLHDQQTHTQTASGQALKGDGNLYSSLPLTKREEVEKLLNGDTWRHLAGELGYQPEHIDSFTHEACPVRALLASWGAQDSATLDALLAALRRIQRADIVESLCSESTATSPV
Description: Previous real-time homo-FRET anisotropy studies by ours as well as other laboratories have shown that the intracellular death domains of p75^NTR are associated with each other (high FRET, low anisotropy state) under basal conditions (Vilar et al, [2009]; Sykes et al, [2012]), but neurotrophin binding induces transient separation of p75^NTR death domains (low FRET, high anisotropy state) manifested as oscillations in real-time anisotropy measurements (Lin et al, [2015]; Tanaka et al, [2016]; Goh et al, [2018]). COS cells expressing full length, GFP-tagged rat p75^NTR were treated with vehicle or Div17E5 and changes in anisotropy levels were recorded over time.
Anisotropy imaging in COS-7 cells that were transfected with a rat p75^NTR-EGFP* fusion construct was done as previously described (Goh, Lin et al, [2018]). EGFP* carries a […] mutation rendering monomeric EGFP. Changes in anisotropy were expressed as fold change at each time point (every 30 s) in comparison to the mean of 6 time points obtained prior to addition of treatment. Images were acquired using Nikon Ti-E based live cell epi-fluorescence microscope and MetaMorph software and analyzed using MatLab from Mathworks.

[2] = target: T2, fascin/p75^NTR interaction (Homo sapiens, UniProt P08138); assay: Co-immunoprecipitation of fascin with p75NTR in A875 cells; format: cell-based; settings: 1 μM; NGF 100 ng/ml
T2 construct: endogenous in cells; host or cells: A875-NT (and A875 sh-p75NTR knock-down control)
T2 sequence (P08138 29-427): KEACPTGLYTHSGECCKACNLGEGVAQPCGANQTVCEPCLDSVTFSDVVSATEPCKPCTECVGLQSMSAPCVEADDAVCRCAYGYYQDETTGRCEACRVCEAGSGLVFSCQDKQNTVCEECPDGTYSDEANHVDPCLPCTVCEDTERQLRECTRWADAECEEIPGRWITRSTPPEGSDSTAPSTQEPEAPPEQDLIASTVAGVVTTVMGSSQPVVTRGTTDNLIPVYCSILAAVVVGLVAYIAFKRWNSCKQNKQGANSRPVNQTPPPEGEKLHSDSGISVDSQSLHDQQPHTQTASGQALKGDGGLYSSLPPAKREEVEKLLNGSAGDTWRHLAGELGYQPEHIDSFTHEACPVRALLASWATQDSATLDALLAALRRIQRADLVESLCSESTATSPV
Method: For co-immunoprecipitation analysis of p75^NTR/fascin interactions, A875 sh-p75^NTR and A875-NT cells were plated in a 10 cm tissue culture dish at a confluency of 3 × 10^6 cells/dish in normal growth media. Twenty-four hours after plating, the cells were treated with 1 μM 4A22 and NGF (100 ng/ml) for 12 h prior to harvest and lysis in lysis buffer (50 mM Tris/HCl pH 7.5, 1 mM EDTA, 270 mM Sucrose, 1% (v/v) Triton X-100, 0.1% (v/v) 2-mercaptoethanol and 60 mM n-Octyl-β-D glucopyranoside) containing protease inhibitor cocktail. The cellular extracts were then centrifuged at 4 °C top speed on a benchtop centrifuge for 1 min and the supernatant was collected. For immunoprecipitation, A875 cell extracts were incubated for 16 h at 4 °C on a rotating wheel with 0.8 μg of anti-p75^NTR antibody (ANT-007, Alomone) and then incubated with Sepharose protein-G beads (GE Healthcare). The beads were collected by brief centrifugation (2 min, 2500 rpm, 4 °C), washed three times with 1 ml of Wash Buffer (with composition same as the lysis buffer). After the last wash, pelleted beads were aspirated off the wash buffer followed by addition of Laemmli sample buffer and analysis by SDS–PAGE followed by Western Blot using anti-fascin antibody (MA5-11483, Invitrogen).

[3] = system: fascin in Triton-insoluble fraction of A875 NT cells; assay: Detergent-insolubility assay of fascin, A875 NT; format: cell-based, human; settings: for Fold change (compared to untreated cells): insoluble/total fascin
Method: A single cell suspension was obtained by trypsinization followed by centrifugation and detergent extraction with lysis buffer (with 0.5% Triton X-100). Then, immediately centrifuged at 8700 g for 3 min. The resulting pellets (containing the Triton X-100-resistant proteins) were suspended in lysis buffer without Triton X-100. In parallel, cells were centrifuged and then directly suspended in lysis buffer. The Triton X-100- resistant proteins and total cell lysates were analyzed by SDS–PAGE and Western blotting with anti-fascin antibody.

Oc1ccc(-c2cncc(Nc3ccc(Br)c(Cl)c3)n2)cc1 [Div17E5]
real-time homo-FRET anisotropy, Ile253 to Ala mutant ([1]; 10 µM): blunted homo-FRET changes
average anisotropy change, I253A ([1]; 0 min after compound addition): 101
average anisotropy change, I253A ([1]; 0.5 min after compound addition): 97
average anisotropy change, I253A ([1]; 1 min after compound addition): 99
average anisotropy change, I253A ([1]; 1.5 min after compound addition): 105
average anisotropy change, I253A ([1]; 2 min after compound addition): 103
average anisotropy change, I253A ([1]; 2.5 min after compound addition): 100
average anisotropy change, I253A ([1]; 3 min after compound addition): 100
average anisotropy change, I253A ([1]; 3.5 min after compound addition): 99
average anisotropy change, I253A ([1]; 4 min after compound addition): 102
average anisotropy change, I253A ([1]; 4.5 min after compound addition): 95
average anisotropy change, I253A ([1]; 5 min after compound addition): 101
average anisotropy change, I253A ([1]; 5.5 min after compound addition): 100
average anisotropy change, I253A ([1]; 6 min after compound addition): 103
average anisotropy change, I253A ([1]; 6.5 min after compound addition): 91
average anisotropy change, I253A ([1]; 7 min after compound addition): 103
average anisotropy change, I253A ([1]; 7.5 min after compound addition): 100
average anisotropy change, I253A ([1]; 8 min after compound addition): 96
average anisotropy change, I253A ([1]; 8.5 min after compound addition): 103
average anisotropy change, I253A ([1]; 9 min after compound addition): 93
average anisotropy change, I253A ([1]; 9.5 min after compound addition): 102
average anisotropy change, I253A ([1]; 10 min after compound addition): 101
average anisotropy change, I253A ([1]; 10.5 min after compound addition): 97
average anisotropy change, I253A ([1]; 11 min after compound addition): 105
average anisotropy change, I253A ([1]; 11.5 min after compound addition): 98
average anisotropy change, I253A ([1]; 12 min after compound addition): 97
average anisotropy change, I253A ([1]; 12.5 min after compound addition): 99
average anisotropy change, I253A ([1]; 13 min after compound addition): 104
average anisotropy change, I253A ([1]; 13.5 min after compound addition): 102
average anisotropy change, I253A ([1]; 14 min after compound addition): 96
average anisotropy change, I253A ([1]; 14.5 min after compound addition): 104
average anisotropy change, I253A ([1]; 15 min after compound addition): 99
average anisotropy change, I253A ([1]; -0.5 min after compound addition): 106
average anisotropy change, I253A ([1]; -1 min after compound addition): 94
average anisotropy change, I253A ([1]; -1.5 min after compound addition): 101
average anisotropy change, I253A ([1]; -2 min after compound addition): 103
average anisotropy change, I253A ([1]; -2.5 min after compound addition): 97
average anisotropy change, I253A ([1]; -3 min after compound addition): 99

Cc1cccc(-c2cncc(Nc3ccc(Br)c(Cl)c3Cl)n2)c1C [Np75-4A22]
NGF-stimulated fascin/p75NTR interaction [2]: completely suppressed the effect of NGF
Toral fascin without background ([3]; 1 μM 4A22, band OD, n1-n3): 39995.1 and 74813.2 and 39347.1
Fold change (compared to untreated cells) ([3]; 1 μM 4A22, n1-n3): 0.751 and 0.708 and 0.695
NGF-increased fascin in detergent insoluble fraction ([3]; 1 μM, NGF 100 ng/ml): blocked this effect
Fold change (compared to untreated cells) ([3]; NGF + 1 μM 4A22, n1-n3): 0.947 and 0.577 and 0.569
